Patent publication US12521375B2, “Pharmaceutical composition for treating fatty liver disease” (Shionogi & Co., Ltd., priority 2020, dated 2026)

Target: recombinant human ACC1 (Homo sapiens (Human), UniProt Q13085)
Assay: Measurement of inhibitory activity of human ACC1
Type: biochemical
Settings: read-out: IC50 hACC1
Text: A cDNA encoding human ACC1 protein (1 amino acid residue to 2346 amino acid residues from the N-terminus) was cloned from a human liver cDNA library (BioChain Institute Inc.), myc tag and His-tag sequences were introduced at the 3′ end, and then inserted into pIEXBAC3 (Novagen). A recombinant baculovirus was produced in accordance with the protocol for FlashBACGOLD (Oxford Expression Technologies Ltd.), and Sf-9 cells were infected therewith to express human ACC1 protein. The recovered cells were crushed, filtered through a filter, and then subjected to Ni affinity chromatography and anion exchange chromatography. Fractions containing human ACC1 protein were collected to obtain recombinant human ACC1.
The recombinant human ACC1 and the recombinant human ACC2 obtained from the above Preparation Examples were preincubated in an assay buffer (50 mM HEPES-KOH (pH 7.4), 10 mM magnesium chloride, 6 to 10 mM potassium citrate, 4 mM reduced glutathione, and 1.5 mg/ml bovine serum albumin) for 1 hour. Then, 5 μL of the pre-incubated enzyme solution and 5 μL of a substrate solution (50 mM HEPES-KOH (pH 7.4), 1 mM ATP, 0.8 mM acetyl-CoA, and 25 to 50 mM potassium bicarbonate) were added to a 384-well microplate into which 0.2 μL of each of solutions of the compound of the present invention (DMSO) had been dispensed, and the mixture was centrifuged and shaken, and then incubated in a wet box at room temperature for 1 to 3 hours. After incubation, the enzymatic reaction was stopped by addition of EDTA, and then the compound was co-crystallized with an α-cyano-4-hydroxy cinnamic acid (CHCA) matrix on a MALDI target plate, and measurement was performed in a reflector negative mode using a matrix-assisted laser desorption ionization-time-of-flight mass spectrometer (MALDI-TOF MS). Deprotonated ions of the substrate acetyl-CoA (AcCoA) and the reaction product malonyl-CoA (MalCoA) were detected, and the intensity of each signal was used to calculate a conversion rate to malonyl-CoA […], i.e., intensity of [MalCoA-H]-/(intensity of [MalCoA-H]-+intensity of [AcCoA-H]-). […] The potassium citrate concentration in the assay buffer, the potassium bicarbonate concentration in the substrate solution, and the incubation time were adjusted within the above concentrations or reaction times for each lot of the enzyme to be used.

Row | IC50 [µM] | SMILES
1 | 6.9 | C[C@@H](CO[C@H]1CC[C@H](Oc2nc3c(F)cc(OC4CC4)cc3n2C)CC1)NC(N)=O [Compound I-12]
2 | 0.91 | CC(=O)N[C@@H](C)CC[C@H]1OC[C@H](Oc2nc3c(F)cc(OC4CC4)cc3n2C)CO1 [Compound I-13]
